Our source for the EC50 values is patent publication US10351546B2, “Pyridin-3-yl acetic acid derivatives as inhibitors of human immunodeficiency virus replication” (priority 2015, dated 2019).

The structures appear in SMILES notation. Like-named read-outs stand apart in the source and are kept apart here. A value given as a limit tells only on which side of the number the result lay.

The test system of this assay is NL-RLuc virus. The experiment in a line: Inhibition of HIV replication (NL-RLuc luciferase reporter virus in MT-2 cells). The assay is classed as cell-based. To be noted: Human immunodeficiency virus 1, MT2, 120 h. In outline:
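MT-2 cells were infected with NL4-3-derived virus carrying Renilla luciferase in place of part of nef, in RPMI/10% FBS, with serial compound dilutions. Luciferase read after 5 days of multicycle replication. EC50 from the median effect equation, at least 2 experiments.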

In the case of `Cc1cc(N2CCc3cc(-c4c(N)nc(C)c([C@H](OC(C)(C)C)C(=O)O)c4N4CCC(C)(C)CC4)ccc3C2)ncn1` [Example 148, (S)-2-(6-Amino-4-(4,4-dimethylpiperidin-1-yl)-2-methyl-5-(2-(6-methylpyrimidin-4-yl)-1,2,3,4-tetrahydroisoquinolin-6-yl)pyridin-3-yl)-2-(tert-butoxy)acetic acid], for the setting “read-out: Activity”, the EC50 is under 0.1 µM.

For `Cc1nc(Cc2ccc(F)cc2)c(-c2ccc(OCCc3ccc(F)cc3)cc2)c(N2CCC(C)(C)CC2)c1[C@H](OC(C)(C)C)C(=O)O` [Example 170, (S)-2-(tert-Butoxy)-2-(4-(4,4-dimethylpiperidin-1-yl)-6-(4-fluorobenzyl)-5-(4-(4-fluorophenethoxy)phenyl)-2-methylpyridin-3-yl)acetic acid], the EC50 (read-out: Activity) was under 0.1 µM.

Turning to `COc1ccc(Cc2nc(C)c([C@H](OC(C)(C)C)C(=O)O)c(N3CCC(C)(C)CC3)c2-c2ccc(OCCc3ccc(F)cc3)cc2)cc1` [Example 60, (S)-2-(tert-Butoxy)-2-(4-(4,4-dimethylpiperidin-1-yl)-5-(4-(4-fluorophenethoxy)phenyl)-6-(4-methoxybenzyl)-2-methylpyridin-3-yl)acetic acid], for the setting “read-out: Activity”, the EC50 is under 0.1 µM.

As for `Cc1cc(F)ccc1CN1CCc2cc(-c3c(N)nc(C)c([C@H](OC(C)(C)C)C(=O)O)c3N3CCC(C)(C)CC3)ccc2C1` [Example 147, (S)-2-(6-Amino-4-(4,4-dimethylpiperidin-1-yl)-5-(2-(4-fluoro-2-methylbenzyl)-1,2,3,4-tetrahydroisoquinolin-6-yl)-2-methylpyridin-3-yl)-2-(tert-butoxy)acetic acid], for the setting “read-out: Activity”, the EC50 was under 0.1 µM.

For `Cc1nc(CNCc2ccccc2)c(-c2ccc(OCCc3ccc(F)cc3)cc2)c(N2CCC(C)(C)CC2)c1[C@H](OC(C)(C)C)C(=O)O` [Example 72, (S)-2-(6-((Benzylamino)methyl)-4-(4,4-dimethylpiperidin-1-yl)-5-(4-(4-fluorophenethoxy)phenyl)-2-methylpyridin-3-yl)-2-(tert-butoxy)acetic acid], where the note is “read-out: Activity”, the EC50 is under 0.1 µM.

Consider `Cc1cc(F)ccc1CN1CCc2cc(-c3c(CN4CCC4)nc(C)c([C@H](OC(C)(C)C)C(=O)O)c3N3CCC(C)(C)CC3)ccc2C1` [Example 117, (S)-2-(6-(Azetidin-1-ylmethyl)-4-(4,4-dimethylpiperidin-1-yl)-5-(2-(4-fluoro-2-methylbenzyl)-1,2,3,4-tetrahydroisoquinolin-6-yl)-2-methylpyridin-3-yl)-2-(tert-butoxy)acetic acid], for which, under “read-out: Activity”, the EC50 is under 0.1 µM.

Regarding `Cc1cc(F)ccc1CN1CCc2cc(-c3c(CNCC4CCOCC4)nc(C)c([C@H](OC(C)(C)C)C(=O)O)c3N3CCC(C)(C)CC3)ccc2C1` [Example 127, (S)-2-(tert-Butoxy)-2-(4-(4,4-dimethylpiperidin-1-yl)-5-(2-(4-fluoro-2-methylbenzyl)-1,2,3,4-tetrahydroisoquinolin-6-yl)-2-methyl-6-((((tetrahydro-2H-pyran-4-yl)methyl)amino)methyl)pyridin-3-yl)acetic acid], the EC50 (read-out: Activity) is under 0.1 µM.

For `Cc1nc(CN(C)Cc2ccccc2)c(-c2ccc(OCCc3ccc(F)cc3)cc2)c(N2CCC(C)(C)CC2)c1[C@H](OC(C)(C)C)C(=O)O` [Example 97, (S)-2-(6-((Benzyl(methyl)amino)methyl)-4-(4,4-dimethylpiperidin-1-yl)-5-(4-(4-fluorophenethoxy)phenyl)-2-methylpyridin-3-yl)-2-(tert-butoxy)acetic acid], the EC50 (read-out: Activity) was under 0.1 µM.

Take `CNc1nc(C)c([C@H](OC(C)(C)C)C(=O)O)c(N2CCC(C)(C)CC2)c1-c1ccc(OCCc2ccc(F)cc2)cc1` [Example 49, (S)-2-(tert-Butoxy)-2-(4-(4,4-dimethylpiperidin-1-yl)-5-(4-(4-fluorophenethoxy)phenyl)-2-methyl-6-(methylamino)pyridin-3-yl)acetic acid]: the EC50 (read-out: Activity) was under 0.1 µM and the EC50 (read-out: EC50 μM) is 0.001 µM.

Consider `Cc1cc(F)ccc1CN1CCc2cc(-c3c(CN4CCCCC4)nc(C)c([C@H](OC(C)(C)C)C(=O)O)c3N3CCC(C)(C)CC3)ccc2C1` [Example 119, (S)-2-(tert-Butoxy)-2-(4-(4,4-dimethylpiperidin-1-yl)-5-(2-(4-fluoro-2-methylbenzyl)-1,2,3,4-tetrahydroisoquinolin-6-yl)-2-methyl-6-(piperidin-1-ylmethyl)pyridin-3-yl)acetic acid], for which the EC50 (read-out: Activity) is under 0.1 µM.

As for `Cc1nc(CN2CCC(C)(C)CC2)c(-c2ccc(OCCc3ccc(F)cc3)cc2)c(N2CCC(C)(C)CC2)c1[C@H](OC(C)(C)C)C(=O)O` [Example 88, (S)-2-(tert-Butoxy)-2-(4-(4,4-dimethylpiperidin-1-yl)-6-((4,4-dimethylpiperidin-1-yl)methyl)-5-(4-(4-fluorophenethoxy)phenyl)-2-methylpyridin-3-yl)acetic acid], for the setting “read-out: Activity”, the EC50 is under 0.1 µM.

`Cc1nc(CO)c([C@H](OC(C)(C)C)C(=O)O)c(N2CCC(C)(C)CC2)c1-c1ccc(OCCc2ccc(F)cc2)cc1` [Example 1, (S)-2-(tert-Butoxy)-2-(4-(4,4-dimethylpiperidin-1-yl)-5-(4-(4-fluorophenethoxy)phenyl)-2-(hydroxymethyl)-6-methylpyridin-3-yl)acetic acid]: the EC50 was under 0.1 µM (read-out: Activity) and 0.003 µM (read-out: EC50 μM).

`Cc1nc(COc2cccc(Cl)c2)c(-c2ccc(OCCc3ccc(F)cc3)cc2)c(N2CCC(C)(C)CC2)c1[C@H](OC(C)(C)C)C(=O)O` [Example 15, (S)-2-(tert-Butoxy)-2-(6-((3-chlorophenoxy)methyl)-4-(4,4-dimethylpiperidin-1-yl)-5-(4-(4-fluorophenethoxy)phenyl)-2-methylpyridin-3-yl)acetic acid]: the EC50 reads like this: (read-out: Activity) under 0.1 µM; (read-out: EC50 μM) 0.051 µM.

As for `Cc1cccc(Cl)c1CN1CCc2cc(-c3c(CN4CCC(C)(C)CC4)nc(C)c([C@H](OC(C)(C)C)C(=O)O)c3N3CCC(C)(C)CC3)ccc2C1` [Example 179, (S)-2-(tert-Butoxy)-2-(5-(2-(2-chloro-6-methylbenzyl)-1,2,3,4-tetrahydroisoquinolin-6-yl)-4-(4,4-dimethylpiperidin-1-yl)-6-((4,4-dimethylpiperidin-1-yl)methyl)-2-methylpyridin-3-yl)acetic acid], the EC50 is under 0.1 µM (read-out: Activity) and 0.005 µM (read-out: EC50 μM).

For `Cc1nc(CCCOC(C)C)c(-c2ccc(OCCc3ccc(F)cc3)cc2)c(N2CCC(C)(C)CC2)c1[C@H](OC(C)(C)C)C(=O)O` [Example 56, (S)-2-(tert-Butoxy)-2-(4-(4,4-dimethylpiperidin-1-yl)-5-(4-(4-fluorophenethoxy)phenyl)-6-(3-isopropoxypropyl)-2-methylpyridin-3-yl)acetic acid], the EC50 (read-out: Activity) is under 0.1 µM.

Turning to `Cc1nc(CN(C)C)c(-c2ccc(OCCc3ccc(F)cc3)cc2)c(N2CCC(C)(C)CC2)c1[C@H](OC(C)(C)C)C(=O)O` [Example 65, (S)-2-(tert-Butoxy)-2-(6-((dimethylamino)methyl)-4-(4,4-dimethylpiperidin-1-yl)-5-(4-(4-fluorophenethoxy)phenyl)-2-methylpyridin-3-yl)acetic acid], the EC50 (read-out: Activity) was under 0.1 µM.

Regarding `CCOCCOCc1cc(N2CCC(C)(C)CC2)c([C@H](OC(C)(C)C)C(=O)O)c(C)n1` [Example 35, (S)-2-(tert-butoxy)-2-(4-(4,4-dimethylpiperidin-1-yl)-6-((2-ethoxyethoxy)methyl)-2-methylpyridin-3-yl)acetic acid], the EC50 is, setting by setting: (read-out: Activity) 0.1 to 1 µM; (read-out: EC50 μM) 0.316 µM.

Turning to `Cc1nc(COC2CCOCC2)c(-c2ccc(OCCc3ccc(F)cc3)cc2)c(N2CCC(C)(C)CC2)c1[C@H](OC(C)(C)C)C(=O)O` [Example 12, (S)-2-(tert-Butoxy)-2-(4-(4,4-dimethylpiperidin-1-yl)-5-(4-(4-fluorophenethoxy)phenyl)-2-methyl-6-(((tetrahydro-2H-pyran-4-yl)oxy)methyl)pyridin-3-yl)acetic acid], the EC50 (read-out: Activity) is under 0.1 µM.

As for `Cc1cc(F)ccc1CN1CCc2cc(-c3c(COCC4CCOCC4)nc(C)c([C@H](OC(C)(C)C)C(=O)O)c3N3CCC(C)(C)CC3)ccc2C1` [Example 159, (S)-2-(tert-Butoxy)-2-(4-(4,4-dimethylpiperidin-1-yl)-5-(2-(4-fluoro-2-methylbenzyl)-1,2,3,4-tetrahydroisoquinolin-6-yl)-2-methyl-6-(((tetrahydro-2H-pyran-4-yl)methoxy)methyl)pyridin-3-yl)acetic acid], the EC50 (read-out: Activity) is under 0.1 µM.

In the case of `Cc1cccc(Cl)c1CN1CCc2cc(-c3c(CN4CCC4)nc(C)c([C@H](OC(C)(C)C)C(=O)O)c3N3CCC(C)(C)CC3)ccc2C1` [Example 175, (S)-2-(6-(Azetidin-1-ylmethyl)-5-(2-(2-chloro-6-methylbenzyl)-1,2,3,4-tetrahydroisoquinolin-6-yl)-4-(4,4-dimethylpiperidin-1-yl)-2-methylpyridin-3-yl)-2-(tert-butoxy)acetic acid], the EC50 (read-out: Activity) is under 0.1 µM.

Consider `Cc1nc(COCCN2CCS(=O)(=O)CC2)c(-c2ccc(OCCc3ccc(F)cc3)cc2)c(N2CCC(C)(C)CC2)c1[C@H](OC(C)(C)C)C(=O)O` [Example 28, (S)-2-(tert-Butoxy)-2-(4-(4,4-dimethylpiperidin-1-yl)-6-((2-(1,1-dioxidothiomorpholino)ethoxy)methyl)-5-(4-(4-fluorophenethoxy)phenyl)-2-methylpyridin-3-yl)acetic acid], for which the EC50 (read-out: Activity) is under 0.1 µM.

As to `Cc1nnc(C(=O)NCc2nc(C)c([C@H](OC(C)(C)C)C(=O)O)c(N3CCC(C)(C)CC3)c2-c2ccc3c(c2)CCN(Cc2ccc(F)cc2C)C3)o1` [Example 141, (S)-2-(tert-Butoxy)-2-(4-(4,4-dimethylpiperidin-1-yl)-5-(2-(4-fluoro-2-methylbenzyl)-1,2,3,4-tetrahydroisoquinolin-6-yl)-2-methyl-6-((5-methyl-1,3,4-oxadiazole-2-carboxamido)methyl)pyridin-3-yl)acetic acid], the EC50 (read-out: Activity) was under 0.1 µM.
